Data as given in article PMC10247784, “Physiological activation of human and mouse bitter taste receptors by bile acids” (Communications Biology, 2023).
“And” between values parts separate entries of the source, which are not always exact repeats. Identical values can stand only once.

Biological target: T1, human TAS2R14 (Homo sapiens, UniProt Q9NYV8)
T1 construct: expressed in transfected cells; host or cells: HEK293T-Gα16gust44
T1 sequence (Q9NYV8 1-317): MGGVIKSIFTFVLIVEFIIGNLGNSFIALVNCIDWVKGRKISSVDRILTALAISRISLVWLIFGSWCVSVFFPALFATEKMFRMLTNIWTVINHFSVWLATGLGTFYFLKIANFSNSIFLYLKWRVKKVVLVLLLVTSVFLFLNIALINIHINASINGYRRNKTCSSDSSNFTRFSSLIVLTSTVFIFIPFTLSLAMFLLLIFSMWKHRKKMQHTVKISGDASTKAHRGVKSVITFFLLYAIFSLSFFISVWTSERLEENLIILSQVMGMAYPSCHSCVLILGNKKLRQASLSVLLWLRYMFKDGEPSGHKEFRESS
Test: Calcium imaging assay (FLIPR), HEK293T-Gα16gust44 cells transfected with human TAS2R14
Format: cell-based
Settings: for RLU: TAS2R14 trace
Summary of the method: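 HEK293T-Gα16gust44 cells transiently transfected with the bitter-taste receptor, loaded next day with Fluo-4-AM plus 2.5 mM probenecid, and challenged with bile acids on FLIPR Tetra. Signals mock-subtracted, expressed as ΔF/F vs buffer.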

## C[C@H](CCC(=O)NCCS(=O)(=O)O)[C@H]1CC[C@H]2[C@@H]3CC[C@@H]4C[C@H](O)CC[C@]4(C)[C@H]3CC[C@]12C [Taurolithocholic Acid, taurolithocholic acid]
TAS2R14, bile acids, mean
  Efficacy = maximal amplitude (ΔF/F): 0.07188
TAS2R14, bile acids, single replicates, listed as TLCA
  Efficacy (maximal amplitude ΔF/F), individual data points: 0.06981 and 0.08988 and 0.05106
Time (s) 0
  RLU: 0 RLU
Time (s) 2 (Taurocholic Acid 2.016)
  RLU: 5.076 RLU
Time (s) 4 (Taurocholic Acid 4.016)
  RLU: -5.108 RLU
Time (s) 6 (Taurocholic Acid 6.016)
  RLU: -10.1397 RLU
Time (s) 8 (Taurocholic Acid 8.016)
  RLU: -25.9369 RLU
Time (s) 12 (Taurocholic Acid 12.016)
  RLU: -47.2431 RLU
Time (s) 14 (Taurocholic Acid 14.016)
  RLU: -37.8259 RLU
Time (s) 16 (Taurocholic Acid 16.016)
  RLU: -67.1139 RLU
Time (s) 18 (Taurocholic Acid 18.016)
  RLU: -63.8827 RLU
Time (s) 18.797 (Chenodeoxycholic Acid 18.765)
  RLU: -68.311 RLU
Time (s) 20.797 (Chenodeoxycholic Acid 20.781)
  RLU: -66.196 RLU
Time (s) 22.797 (Chenodeoxycholic Acid 22.781)
  RLU: -50.0226 RLU
Time (s) 24.797 (Chenodeoxycholic Acid 24.781)
  RLU: -48.2767 RLU
Time (s) 26.797 (Chenodeoxycholic Acid 26.781)
  RLU: -41.6616 RLU
Time (s) 28.797 (Chenodeoxycholic Acid 28.781)
  RLU: -45.6719 RLU
Time (s) 30.797 (Chenodeoxycholic Acid 30.781)
  RLU: -13.6241 RLU
Time (s) 32.797 (Chenodeoxycholic Acid 32.781)
  RLU: 14.5625 RLU
Time (s) 34.797 (Chenodeoxycholic Acid 34.781)
  RLU: 34.5332 RLU
Time (s) 36.797 (Chenodeoxycholic Acid 36.781)
  RLU: 37.8124 RLU
Time (s) 38.797 (Chenodeoxycholic Acid 38.781)
  RLU: 50.8625 RLU
Time (s) 40.797 (Chenodeoxycholic Acid 40.781)
  RLU: 58.2474 RLU
Time (s) 42.797 (Chenodeoxycholic Acid 42.781)
  RLU: 67.9279 RLU
Time (s) 44.797 (Chenodeoxycholic Acid 44.781)
  RLU: 76.8016 RLU
Time (s) 46.797 (Chenodeoxycholic Acid 46.781)
  RLU: 99.8168 RLU
Time (s) 48.797 (Chenodeoxycholic Acid 48.781)
  RLU: 113.593 RLU
Time (s) 50.797 (Chenodeoxycholic Acid 50.781)
  RLU: 125.702 RLU
Time (s) 52.797 (Chenodeoxycholic Acid 52.781)
  RLU: 143.488 RLU
Time (s) 54.797 (Chenodeoxycholic Acid 54.781)
  RLU: 148.335 RLU
Time (s) 56.797 (Chenodeoxycholic Acid 56.781)
  RLU: 163.155 RLU
Time (s) 58.797 (Chenodeoxycholic Acid 58.781)
  RLU: 176.389 RLU
Time (s) 60.797 (Chenodeoxycholic Acid 60.781)
  RLU: 197.723 RLU
Time (s) 62.797 (Chenodeoxycholic Acid 62.781)
  RLU: 213.291 RLU
Time (s) 64.797 (Chenodeoxycholic Acid 64.781)
  RLU: 213.968 RLU
Time (s) 66.797 (Chenodeoxycholic Acid 66.781)
  RLU: 225.512 RLU
Time (s) 68.797 (Chenodeoxycholic Acid 68.781)
  RLU: 237.861 RLU
Time (s) 70.797 (Chenodeoxycholic Acid 70.781)
  RLU: 234.615 RLU
Time (s) 72.797 (Chenodeoxycholic Acid 72.781)
  RLU: 231.58 RLU
Time (s) 74.797 (Chenodeoxycholic Acid 74.781)
  RLU: 268.946 RLU
Time (s) 76.797 (Chenodeoxycholic Acid 76.781)
  RLU: 267.933 RLU
Time (s) 78.797 (Chenodeoxycholic Acid 78.781)
  RLU: 291.733 RLU
Time (s) 80.797 (Chenodeoxycholic Acid 80.781)
  RLU: 290.533 RLU
Time (s) 82.797 (Chenodeoxycholic Acid 82.781)
  RLU: 307.412 RLU
Time (s) 84.797 (Chenodeoxycholic Acid 84.781)
  RLU: 297.633 RLU
Time (s) 86.797 (Chenodeoxycholic Acid 86.781)
  RLU: 303.737 RLU
Time (s) 88.797 (Chenodeoxycholic Acid 88.781)
  RLU: 299.661 RLU
Time (s) 90.797 (Chenodeoxycholic Acid 90.781)
  RLU: 303.944 RLU
Time (s) 92.797 (Chenodeoxycholic Acid 92.781)
  RLU: 328.349 RLU
Time (s) 94.797 (Chenodeoxycholic Acid 94.781)
  RLU: 307.307 RLU
Time (s) 96.797 (Chenodeoxycholic Acid 96.781)
  RLU: 314.559 RLU
Time (s) 98.797 (Chenodeoxycholic Acid 98.781)
  RLU: 326.967 RLU
Time (s) 100.797 (Chenodeoxycholic Acid 100.781)
  RLU: 302.894 RLU
Time (s) 102.797 (Chenodeoxycholic Acid 102.781)
  RLU: 324.498 RLU
Time (s) 104.797 (Chenodeoxycholic Acid 104.781)
  RLU: 347.898 RLU
Time (s) 106.797 (Chenodeoxycholic Acid 106.781)
  RLU: 338.946 RLU
Time (s) 108.797 (Chenodeoxycholic Acid 108.781)
  RLU: 361.614 RLU
Time (s) 110.797 (Chenodeoxycholic Acid 110.781)
  RLU: 335.334 RLU
Time (s) 112.797 (Chenodeoxycholic Acid 112.781)
  RLU: 367.933 RLU
Time (s) 114.797 (Chenodeoxycholic Acid 114.781)
  RLU: 388.996 RLU
Time (s) 116.797 (Chenodeoxycholic Acid 116.781)
  RLU: 373.414 RLU
Time (s) 118.797 (Chenodeoxycholic Acid 118.781)
  RLU: 374.133 RLU
Time (s) 120.797 (Chenodeoxycholic Acid 120.781)
  RLU: 378.298 RLU
Time (s) 122.797 (Chenodeoxycholic Acid 122.781)
  RLU: 394.755 RLU
Time (s) 124.797 (Chenodeoxycholic Acid 124.781)
  RLU: 385.131 RLU
Time (s) 126.797 (Chenodeoxycholic Acid 126.781)
  RLU: 394.257 RLU
Time (s) 128.797 (Chenodeoxycholic Acid 128.781)
  RLU: 394.724 RLU
Time (s) 130.797 (Chenodeoxycholic Acid 130.781)
  RLU: 379.935 RLU
Time (s) 132.797 (Chenodeoxycholic Acid 132.781)
  RLU: 394.817 RLU
Time (s) 134.797 (Chenodeoxycholic Acid 134.781)
  RLU: 375.334 RLU
Time (s) 136.797 (Chenodeoxycholic Acid 136.781)
  RLU: 397.788 RLU
Time (s) 137.562 (Taurocholic Acid 137.563, Chenodeoxycholic Acid 137.546)
  RLU: 382.953 RLU
Time (s) 143.578 (Taurocholic Acid 143.563, Chenodeoxycholic Acid 143.546)
  RLU: 394.002 RLU
Time (s) 149.578 (Taurocholic Acid 149.563, Chenodeoxycholic Acid 149.546)
  RLU: 363.524 RLU
Time (s) 155.578 (Taurocholic Acid 155.563, Chenodeoxycholic Acid 155.546)
  RLU: 370.686 RLU
Time (s) 161.578 (Taurocholic Acid 161.563, Chenodeoxycholic Acid 161.546)
  RLU: 390.532 RLU
Time (s) 167.578 (Taurocholic Acid 167.563, Chenodeoxycholic Acid 167.546)
  RLU: 378.911 RLU
Time (s) 173.578 (Taurocholic Acid 173.563, Chenodeoxycholic Acid 173.546)
  RLU: 356.99 RLU
Time (s) 179.578 (Taurocholic Acid 179.563, Chenodeoxycholic Acid 179.546)
  RLU: 351.344 RLU
Time (s) 191.578 (Taurocholic Acid 191.563, Chenodeoxycholic Acid 191.546)
  RLU: 317.716 RLU
Time (s) 197.578 (Taurocholic Acid 197.563, Chenodeoxycholic Acid 197.546)
  RLU: 291.899 RLU
Time (s) 209.578 (Taurocholic Acid 209.563, Chenodeoxycholic Acid 209.546)
  RLU: 252.636 RLU
Time (s) 221.578 (Taurocholic Acid 221.563, Chenodeoxycholic Acid 221.546)
  RLU: 195.665 RLU
Time (s) 233.578 (Taurocholic Acid 233.563, Chenodeoxycholic Acid 233.546)
  RLU: 155.879 RLU
Time (s) 239.578 (Taurocholic Acid 239.563, Chenodeoxycholic Acid 239.546)
  RLU: 121.06 RLU
Time (s) 245.578 (Taurocholic Acid 245.563, Chenodeoxycholic Acid 245.546)
  RLU: 124.983 RLU
Time (s) 293.578 (Taurocholic Acid 293.563, Chenodeoxycholic Acid 293.546)
  RLU: 26.9674 RLU
Time (s) 299.578 (Taurocholic Acid 299.563, Chenodeoxycholic Acid 299.546)
  RLU: 2.882 RLU
Time (s) 305.578 (Taurocholic Acid 305.563, Chenodeoxycholic Acid 305.546)
  RLU: 10.8603 RLU
Time (s) 311.578 (Taurocholic Acid 311.563, Chenodeoxycholic Acid 311.546)
  RLU: -14.8461 RLU
Time (s) 317.578 (Taurocholic Acid 317.563, Chenodeoxycholic Acid 317.546)
  RLU: -4.053 RLU
Time (s) 323.578 (Taurocholic Acid 323.563, Chenodeoxycholic Acid 323.546)
  RLU: -64.2935 RLU
Time (s) 329.578 (Taurocholic Acid 329.563, Chenodeoxycholic Acid 329.546)
  RLU: -47.603 RLU
Time (s) 335.578 (Taurocholic Acid 335.563, Chenodeoxycholic Acid 335.546)
  RLU: -52.8312 RLU
Time (s) 341.578 (Taurocholic Acid 341.563, Chenodeoxycholic Acid 341.546)
  RLU: -81.682 RLU
Time (s) 347.578 (Taurocholic Acid 347.563, Chenodeoxycholic Acid 347.546)
  RLU: -84.764 RLU
Time (s) 353.578 (Taurocholic Acid 353.563, Chenodeoxycholic Acid 353.546)
  RLU: -78.8648 RLU
Time (s) 359.578 (Taurocholic Acid 359.563, Chenodeoxycholic Acid 359.546)
  RLU: -73.3268 RLU
Lowest concentration with significantly increased fluorescence vs empty vector (p < 0.01)
  Activation threshold concentration TAS2R14: 0.3 µM
